Measurements reported in patent publication US11325936B2, “Sialidase inhibitors and preparation thereof” (The Regents of the University of California, priority 2017, dated 2022).
Like-named read-outs stand apart in the source and are kept apart here.

What was measured:
[1] = target: T1, SpNanC (Streptococcus pneumoniae, UniProt A0A0H2UQE4); test: Sialidase inhibition assay (Example 4); assay type: biochemical; conditions: pH 6.5, read-out: Percentage inhibition (%) against SpNanC
[2] = target: T2, SpNanA (Streptococcus pneumoniae, UniProt P62575); test: Sialidase inhibition assay (Example 4); assay type: biochemical; conditions: for inhibition at 100 µM: pH 6, read-out: Percentage inhibition (%) against SpNanA, 0.1 mM of each inhibitor, substrate Neu5Acα2-3GalβpNP 0.3 mM, pH 6.0
[3] = target: CpNanH (Clostridium perfringens, UniProt P10481); test: biochemical; conditions: pH 5.0; read-out: Percentage inhibition (%) against CpNanH
[4] = target: T3, AuSialidase (Paenarthrobacter ureafaciens, UniProt Q5W7Q2); test: Sialidase inhibition assay (Example 4); assay type: biochemical, Arthrobacter ureafaciens; conditions: pH 5.5, read-out: Percentage inhibition (%) against AuSialidase, 0.1 mM of each inhibitor, substrate Neu5Acα2-3GalβpNP 0.3 mM
T3 sequence (Q5W7Q2 39-990): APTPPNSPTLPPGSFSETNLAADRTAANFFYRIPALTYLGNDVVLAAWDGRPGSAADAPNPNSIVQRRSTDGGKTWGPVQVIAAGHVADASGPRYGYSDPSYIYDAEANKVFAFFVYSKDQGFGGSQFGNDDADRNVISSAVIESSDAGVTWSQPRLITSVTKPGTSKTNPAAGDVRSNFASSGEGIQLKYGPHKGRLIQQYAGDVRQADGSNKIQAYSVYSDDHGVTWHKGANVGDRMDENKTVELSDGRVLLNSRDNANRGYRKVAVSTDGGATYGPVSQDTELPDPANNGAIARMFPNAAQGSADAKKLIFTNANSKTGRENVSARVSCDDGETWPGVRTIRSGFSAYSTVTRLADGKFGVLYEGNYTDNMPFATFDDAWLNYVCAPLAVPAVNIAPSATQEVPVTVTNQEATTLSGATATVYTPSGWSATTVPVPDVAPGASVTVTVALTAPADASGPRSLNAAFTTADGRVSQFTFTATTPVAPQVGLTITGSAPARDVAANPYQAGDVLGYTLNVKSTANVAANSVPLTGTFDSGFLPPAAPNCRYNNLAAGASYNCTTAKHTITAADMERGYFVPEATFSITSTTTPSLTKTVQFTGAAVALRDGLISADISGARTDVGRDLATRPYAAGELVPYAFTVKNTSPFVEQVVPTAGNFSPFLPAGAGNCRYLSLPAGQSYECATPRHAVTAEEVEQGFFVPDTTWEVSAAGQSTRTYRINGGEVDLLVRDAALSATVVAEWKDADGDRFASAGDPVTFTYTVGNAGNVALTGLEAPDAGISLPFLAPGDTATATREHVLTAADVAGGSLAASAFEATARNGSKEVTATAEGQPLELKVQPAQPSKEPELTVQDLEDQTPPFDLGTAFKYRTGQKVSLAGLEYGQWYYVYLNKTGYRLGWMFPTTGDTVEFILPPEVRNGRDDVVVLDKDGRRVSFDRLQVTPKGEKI
Description: (§1) The assay conditions varied for different sialidases as described below: SpNanA (0.0015 μg), NaOAc buffer (100 mM, pH 6.0); SpNanB (0.003 μg), NaOAc buffer (100 mM, pH 6.0); SpNanC (0.02 μg), MES buffer (100 mM, pH 6.5); AuSialidase (1.0 mU), NaOAc buffer (100 mM, pH 5.5); CpNanI (2.0 mU), MES buffer (100 mM, pH 5.0); CpNanH (0.5 mU), MES buffer (100 mM, pH 5.0); VcSialidase (1.5 mU), NaCl (150 mM), CaCl2) (10 mM), NaOAc buffer (100 mM, pH 5.5); PmST1 (34.4 μg), NaOAc buffer (100 mM, pH 5.5); BiNanH2, NaOAc buffer (100 mM, pH 5.0); hNEU2 (22.0 μg), MES buffer (100 mM, pH 5.0). The reactions were incubated for 30 min at 37° C., and were stopped by adding CAPS buffer (N-cyclohexyl-3-aminopropane sulfonic acid, 40 μL, 0.5 M, pH 10.5). The amount of the para-nitrophenolate formed was determined by measuring the A405 nm Of the reaction mixtures using a microplate reader.
(§2) The percentage inhibitions were determined using a concentration of 0.1 mM of each inhibitor, with reactions without inhibitors as controls. […] The values of IC50 were calculated by the software Grafit 5.0.

[5] = system: CpNanI; assay type: biochemical, Clostridium perfringens; conditions: 0.1 mM of each inhibitor; substrate Neu5Acα2-3GalβpNP 0.3 mM; pH 5.0
[6] = target: T4, PmST1 (Pasteurella multocida, UniProt Q15KI8); test: Sialidase inhibition assay (Example 4); assay type: biochemical; conditions: 0.1 mM of each inhibitor; substrate Neu5Acα2-3GalβpNP 0.3 mM; pH 5.5; read-out: Percentage inhibition (%) against PmST1
Description: as §1, §2

[7] = target: T5, VcSialidase (Vibrio cholerae serotype O1, UniProt P0C6E9); test: biochemical; conditions: pH 5.5, read-out: Percentage inhibition (%) against VcSialidase, 0.1 mM of each inhibitor, substrate Neu5Acα2-3GalβpNP 0.3 mM
[8] = target: hNEU2 (Homo sapiens, UniProt Q9Y3R4); test: Sialidase inhibition assay (Example 4); assay type: biochemical; conditions: pH 5, 0.1 mM of each inhibitor, substrate Neu5Acα2-3GalβpNP 0.3 mM, read-out: Percentage inhibition (%) against hNEU2
[9] = target: T6, BiNanH2 (Bifidobacterium longum subsp. infantis, UniProt A0ACD7UU12); test: Sialidase inhibition assay (Example 4); assay type: biochemical; conditions: pH 5, read-out: Percentage inhibition (%) against BiNanH2, 0.1 mM of each inhibitor, substrate Neu5Acα2-3GalβpNP 0.3 mM
[10] = target: T7, SpNanB (Streptococcus pneumoniae serotype 4, UniProt Q54727, E68D/K536E/K577E/N393D/S59P); test: Sialidase inhibition assay (Example 4); assay type: biochemical; conditions: pH 6, read-out: Percentage inhibition (%) against SpNanB
[11] = target: T6, BiNanH2; test: Sialidase inhibition assay (Example 7); assay type: biochemical; conditions: pH 5, read-out: Percentage inhibition (%) against BiNanH2
[12] = target: T7, SpNanB; test: Sialidase inhibition assay (Example 7); assay type: biochemical; conditions: pH 6, read-out: Percentage inhibition (%) against SpNanB
[13] = target: T5, VcSialidase; test: Sialidase inhibition assay (Example 7); assay type: biochemical; conditions: pH 5.5, read-out: Percentage inhibition (%) against VcSialidase
[14] = target: T4, PmST1; test: Sialidase inhibition assay (Example 7); assay type: biochemical; conditions: 1 mM of each inhibitor; substrate Neu5Acα2-3GalβpNP 0.3 mM; CMP 0.4 mM; pH 5.5; read-out: Percentage inhibition (%) against PmST1
[15] = system: CpNanI; assay type: biochemical, Clostridium perfringens; conditions: 1 mM of each inhibitor; substrate Neu5Acα2-3GalβpNP 0.3 mM; pH 5.0
[16] = target: T3, AuSialidase; test: Sialidase inhibition assay (Example 7); assay type: biochemical, Arthrobacter ureafaciens; conditions: 1 mM of each inhibitor; substrate Neu5Acα2-3GalβpNP 0.3 mM; pH 5.5; read-out: Percentage inhibition (%) against AuSialidase
[17] = target: T2, SpNanA; test: Sialidase inhibition assay (Example 7); assay type: biochemical; conditions: pH 6, read-out: Percentage inhibition (%) against SpNanA
[18] = target: T1, SpNanC; test: Sialidase inhibition assay (Example 7); conditions: pH 6.5, read-out: Percentage inhibition (%) against SpNanC

T2 sequence (P62575 54-1006): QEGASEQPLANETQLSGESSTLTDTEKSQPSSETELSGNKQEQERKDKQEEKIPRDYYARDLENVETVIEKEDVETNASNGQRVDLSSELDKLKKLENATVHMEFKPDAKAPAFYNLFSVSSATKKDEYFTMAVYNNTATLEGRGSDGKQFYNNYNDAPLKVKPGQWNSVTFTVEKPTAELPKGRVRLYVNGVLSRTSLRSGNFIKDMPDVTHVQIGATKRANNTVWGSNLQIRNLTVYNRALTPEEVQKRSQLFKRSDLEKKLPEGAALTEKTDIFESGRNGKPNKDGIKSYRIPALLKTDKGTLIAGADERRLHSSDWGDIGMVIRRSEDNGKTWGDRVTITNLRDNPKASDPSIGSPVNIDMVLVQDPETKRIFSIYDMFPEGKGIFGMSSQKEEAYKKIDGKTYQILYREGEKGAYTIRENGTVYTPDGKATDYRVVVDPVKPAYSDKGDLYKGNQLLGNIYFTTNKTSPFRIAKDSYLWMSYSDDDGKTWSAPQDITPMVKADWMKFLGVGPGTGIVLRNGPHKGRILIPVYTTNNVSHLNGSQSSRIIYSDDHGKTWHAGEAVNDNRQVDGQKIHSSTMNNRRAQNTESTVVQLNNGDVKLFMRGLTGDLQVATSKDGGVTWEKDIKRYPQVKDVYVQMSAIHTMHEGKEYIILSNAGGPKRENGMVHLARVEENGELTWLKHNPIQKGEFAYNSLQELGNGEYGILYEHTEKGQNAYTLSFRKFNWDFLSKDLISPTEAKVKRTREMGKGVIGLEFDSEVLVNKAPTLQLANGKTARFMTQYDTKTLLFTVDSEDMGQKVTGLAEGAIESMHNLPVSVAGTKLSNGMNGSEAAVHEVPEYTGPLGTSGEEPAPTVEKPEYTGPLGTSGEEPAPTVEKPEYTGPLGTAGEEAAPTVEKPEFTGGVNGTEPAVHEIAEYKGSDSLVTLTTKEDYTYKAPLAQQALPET
T4 sequence (Q15KI8 entry or part of it): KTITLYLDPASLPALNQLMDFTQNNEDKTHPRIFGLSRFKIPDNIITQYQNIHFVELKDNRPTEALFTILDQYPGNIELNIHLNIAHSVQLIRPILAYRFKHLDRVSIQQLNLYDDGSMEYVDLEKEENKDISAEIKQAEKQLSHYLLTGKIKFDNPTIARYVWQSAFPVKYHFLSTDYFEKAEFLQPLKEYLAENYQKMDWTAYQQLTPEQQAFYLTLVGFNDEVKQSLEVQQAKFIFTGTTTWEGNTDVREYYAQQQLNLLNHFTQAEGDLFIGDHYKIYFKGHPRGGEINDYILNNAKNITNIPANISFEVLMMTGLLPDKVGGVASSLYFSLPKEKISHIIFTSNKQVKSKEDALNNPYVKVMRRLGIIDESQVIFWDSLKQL
T7 sequence (Q54727 30-697 S59P/E68D/N393D/K536E/K577E): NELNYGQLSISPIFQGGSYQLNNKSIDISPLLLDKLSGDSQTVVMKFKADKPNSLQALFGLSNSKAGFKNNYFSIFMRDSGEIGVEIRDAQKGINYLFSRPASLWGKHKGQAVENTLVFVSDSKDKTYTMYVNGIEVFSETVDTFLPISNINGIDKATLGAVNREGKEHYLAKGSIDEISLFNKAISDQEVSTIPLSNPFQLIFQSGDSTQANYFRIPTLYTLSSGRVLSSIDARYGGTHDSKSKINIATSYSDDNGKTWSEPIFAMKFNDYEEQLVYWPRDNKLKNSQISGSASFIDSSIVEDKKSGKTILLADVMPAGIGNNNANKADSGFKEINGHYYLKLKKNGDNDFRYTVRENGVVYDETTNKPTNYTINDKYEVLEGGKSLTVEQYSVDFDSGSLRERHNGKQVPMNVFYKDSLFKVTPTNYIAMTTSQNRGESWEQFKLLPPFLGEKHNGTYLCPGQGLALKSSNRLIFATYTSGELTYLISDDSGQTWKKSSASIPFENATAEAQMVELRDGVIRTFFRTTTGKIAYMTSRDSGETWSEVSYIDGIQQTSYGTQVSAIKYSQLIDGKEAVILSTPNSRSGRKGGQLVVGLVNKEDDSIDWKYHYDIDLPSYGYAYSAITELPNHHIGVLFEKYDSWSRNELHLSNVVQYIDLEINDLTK
CpNanH, sequence (P10481 whole entry, looked up): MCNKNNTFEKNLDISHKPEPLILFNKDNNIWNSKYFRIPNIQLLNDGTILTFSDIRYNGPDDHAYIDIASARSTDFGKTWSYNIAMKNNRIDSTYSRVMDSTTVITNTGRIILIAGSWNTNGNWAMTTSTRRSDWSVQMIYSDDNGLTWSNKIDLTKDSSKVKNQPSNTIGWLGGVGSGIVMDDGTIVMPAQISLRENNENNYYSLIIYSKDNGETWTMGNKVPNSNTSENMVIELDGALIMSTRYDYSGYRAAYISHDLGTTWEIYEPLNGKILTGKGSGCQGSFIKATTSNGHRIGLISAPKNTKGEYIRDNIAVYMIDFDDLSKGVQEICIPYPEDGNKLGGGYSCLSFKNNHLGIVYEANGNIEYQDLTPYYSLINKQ
T6 sequence (A0ACD7UU12 entry or part of it): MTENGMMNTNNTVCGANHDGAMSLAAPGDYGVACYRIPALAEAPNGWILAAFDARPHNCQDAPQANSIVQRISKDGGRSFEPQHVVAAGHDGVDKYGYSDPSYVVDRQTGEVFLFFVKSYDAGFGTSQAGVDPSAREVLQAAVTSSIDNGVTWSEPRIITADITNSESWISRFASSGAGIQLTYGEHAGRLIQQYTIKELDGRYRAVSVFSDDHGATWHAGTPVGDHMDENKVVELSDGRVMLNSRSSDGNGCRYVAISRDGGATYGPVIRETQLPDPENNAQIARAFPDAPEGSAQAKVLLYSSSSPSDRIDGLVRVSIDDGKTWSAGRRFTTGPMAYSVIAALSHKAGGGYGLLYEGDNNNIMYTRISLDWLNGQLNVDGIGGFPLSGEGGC
hNEU2, sequence (Q9Y3R4 whole entry): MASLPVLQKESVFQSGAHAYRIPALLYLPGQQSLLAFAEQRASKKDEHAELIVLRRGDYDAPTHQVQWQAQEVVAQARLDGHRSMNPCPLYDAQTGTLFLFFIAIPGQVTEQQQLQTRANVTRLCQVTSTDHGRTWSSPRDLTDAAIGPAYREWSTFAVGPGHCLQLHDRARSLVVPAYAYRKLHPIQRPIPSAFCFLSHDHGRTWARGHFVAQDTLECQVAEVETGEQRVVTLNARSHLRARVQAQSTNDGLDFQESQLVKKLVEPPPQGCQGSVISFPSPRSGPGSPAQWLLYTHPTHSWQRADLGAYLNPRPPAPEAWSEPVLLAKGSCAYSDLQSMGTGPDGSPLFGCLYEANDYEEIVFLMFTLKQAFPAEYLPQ
T1 sequence (A0A0H2UQE4 entry or part of it): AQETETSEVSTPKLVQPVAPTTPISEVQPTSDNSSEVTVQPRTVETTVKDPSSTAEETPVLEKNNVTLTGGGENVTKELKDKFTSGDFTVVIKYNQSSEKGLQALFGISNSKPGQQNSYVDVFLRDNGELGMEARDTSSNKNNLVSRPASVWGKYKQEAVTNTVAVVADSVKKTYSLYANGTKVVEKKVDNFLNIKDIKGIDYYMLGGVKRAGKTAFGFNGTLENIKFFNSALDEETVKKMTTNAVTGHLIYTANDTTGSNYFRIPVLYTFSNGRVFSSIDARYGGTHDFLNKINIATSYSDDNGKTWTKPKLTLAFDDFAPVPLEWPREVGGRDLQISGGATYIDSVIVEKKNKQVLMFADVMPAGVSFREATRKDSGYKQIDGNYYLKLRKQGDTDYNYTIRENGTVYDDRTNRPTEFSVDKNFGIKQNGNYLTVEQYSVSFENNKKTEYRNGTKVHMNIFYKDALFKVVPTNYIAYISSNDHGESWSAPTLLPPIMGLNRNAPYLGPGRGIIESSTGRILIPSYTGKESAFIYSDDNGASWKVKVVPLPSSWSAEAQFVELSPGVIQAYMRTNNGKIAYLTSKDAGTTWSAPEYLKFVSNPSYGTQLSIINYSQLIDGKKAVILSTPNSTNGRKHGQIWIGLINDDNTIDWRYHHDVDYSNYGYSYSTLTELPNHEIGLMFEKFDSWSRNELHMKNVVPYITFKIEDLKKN
T5 sequence (P0C6E9 25-781): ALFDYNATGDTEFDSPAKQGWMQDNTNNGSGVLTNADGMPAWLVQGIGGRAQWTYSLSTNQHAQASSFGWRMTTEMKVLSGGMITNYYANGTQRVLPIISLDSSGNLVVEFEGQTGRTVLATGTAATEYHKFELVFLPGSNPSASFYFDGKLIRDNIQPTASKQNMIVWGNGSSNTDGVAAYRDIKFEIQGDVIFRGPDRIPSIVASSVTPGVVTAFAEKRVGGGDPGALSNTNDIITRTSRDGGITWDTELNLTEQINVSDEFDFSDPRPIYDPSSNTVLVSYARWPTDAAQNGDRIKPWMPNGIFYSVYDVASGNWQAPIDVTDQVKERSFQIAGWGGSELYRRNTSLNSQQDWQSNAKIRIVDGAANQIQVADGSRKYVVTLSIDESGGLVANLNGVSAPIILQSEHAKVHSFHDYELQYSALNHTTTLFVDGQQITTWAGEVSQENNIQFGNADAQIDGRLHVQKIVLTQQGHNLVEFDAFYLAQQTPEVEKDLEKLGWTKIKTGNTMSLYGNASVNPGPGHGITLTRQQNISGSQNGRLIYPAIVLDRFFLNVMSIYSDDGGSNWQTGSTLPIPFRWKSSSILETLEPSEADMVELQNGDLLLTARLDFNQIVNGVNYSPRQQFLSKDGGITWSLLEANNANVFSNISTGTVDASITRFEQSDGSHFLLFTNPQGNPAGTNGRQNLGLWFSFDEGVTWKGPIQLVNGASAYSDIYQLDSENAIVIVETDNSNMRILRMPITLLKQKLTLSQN

Structure (SMILES)	inhibition at 100 µM [1]	IC50 [2]	inhibition at 100 µM [2]	inhibition at 100 µM [3]	inhibition at 100 µM [4]	Percentage inhibition (%) against CpNanI [5]	inhibition at 100 µM [6]	inhibition at 100 µM [7]	inhibition at 100 µM [8]	inhibition at 100 µM [9]	inhibition at 100 µM [10]	inhibition at 1000 µM [11]	inhibition at 1000 µM [12]	inhibition at 1000 µM [13]	inhibition at 1000 µM [14]	Percentage inhibition (%) against CpNanI [15]	inhibition at 1000 µM [16]	inhibition at 1000 µM [17]	inhibition at 1000 µM [18]
CC(=O)NC[C@@H](O)[C@@H](O)[C@@H]1OC(C(=O)O)=C[C@H](O)[C@H]1NC(C)=O [compound 9, 5,9-Diacetamido-2,6-anhydro-3,5,9-trideoxy-D-glycero-D-galacto-non-2-enonic acid]	8%	11 ± 0.2 µM	86%	1%	60%	63%	19%	45%	27%	69%	4%	–	–	–	–	–	–	–	–
O=C(Cc1ccccc1)N[C@H]1[C@H]([C@H](O)[C@H](O)CO)OC(C(=O)O)=C[C@@H]1O [compound 15, 2,6-Anhydro-3,5-dideoxy-5-phenylacetamido-D-glycero-D-galacto-non-2-enonic acid]	12%	–	2%	8%	13%	19%	8%	5%	81%	17%	5%	–	–	–	–	–	–	–	–
CC(=O)N[C@H]1[C@H]([C@H](O)[C@H](O)CO)OC(C(=O)O)=C[C@@H]1O [compound 6, 5-Acetamido-2,6-anhydro-3,5-dideoxy-D-glycero-D-galacto-non-2-enonic acid, reference compound]	11%	–	–	2%	–	–	2%	–	–	> 50%	4%	95.3 ± 0.2%	26.1 ± 1%	98.8 ± 0.1%	15.8 ± 0.1%	93.3 ± 3.8%	99.6 ± 0.6%	98.9 ± 1.8%	9 ± 3.5%
CC(=O)N[C@@H]1C(O)C=C(C(=O)O)OC1[C@H](O)[C@H](O)CNC(=O)C1CC1 (stereo partly drawn) [compound 13, 5-Acetamido-2,6-anhydro-9-cyclopropylcarboxamido-3,5,9-trideoxy-D-glycero-D-galacto-non-2-enonic acid]	16%	6.8 ± 0.2 µM	91%	7%	61%	51%	3%	40%	17%	78%	2%	–	–	–	–	–	–	–	–
CC(=O)N[C@@H]1C(O)C=C(C(=O)O)OC1C[C@H](O)CO (stereo partly drawn) [compound 10, 5-Acetamido-2,6-anhydro-3,5,7-trideoxy-D-glycero-D-galacto-non-2-enonic acid]	5%	10.7 ± 0.4 µM	89%	11%	85%	57%	15%	40%	42%	30%	2%	–	–	–	–	–	–	–	–
CCCCC(=O)NC[C@@H](O)[C@@H](O)[C@@H]1OC(C(=O)O)=C[C@H](O)[C@H]1NC(C)=O [compound 12, 5-Acetamido-2,6-anhydro-3,5,9-trideoxy-9-valeramido-D-glycero-D-galacto-non-2-enonic acid]	11%	10.5 ± 0.5 µM	85%	3%	40%	40%	8%	43%	19%	71%	3%	–	–	–	–	–	–	–	–
O=C(CO)N[C@@H]1C(O)C=C(C(=O)O)OC1[C@H](O)[C@H](O)CO (stereo partly drawn) [compound 7, 2,6-Anhydro-3,5-dideoxy-5-glycolylamido-D-glycero-D-galacto-non-2-enonic acid]	17%	–	14%	9%	47%	20%	2%	–	> 50%	19%	4%	–	–	–	–	–	–	–	–
